In PMC5743546 (Biochemistry, 2017):
Read-outs that look alike come from different tables or passages of the source.

What was measured:
CYP2J2 [1] = molecular target: T1, CYP2J2 (Homo sapiens, UniProt P51589); assay: biochemical; conditions: for y0 (residual rate of AA epoxidation at maximum inhibition): fit to eq S1
T1 sequence (P51589 1-502): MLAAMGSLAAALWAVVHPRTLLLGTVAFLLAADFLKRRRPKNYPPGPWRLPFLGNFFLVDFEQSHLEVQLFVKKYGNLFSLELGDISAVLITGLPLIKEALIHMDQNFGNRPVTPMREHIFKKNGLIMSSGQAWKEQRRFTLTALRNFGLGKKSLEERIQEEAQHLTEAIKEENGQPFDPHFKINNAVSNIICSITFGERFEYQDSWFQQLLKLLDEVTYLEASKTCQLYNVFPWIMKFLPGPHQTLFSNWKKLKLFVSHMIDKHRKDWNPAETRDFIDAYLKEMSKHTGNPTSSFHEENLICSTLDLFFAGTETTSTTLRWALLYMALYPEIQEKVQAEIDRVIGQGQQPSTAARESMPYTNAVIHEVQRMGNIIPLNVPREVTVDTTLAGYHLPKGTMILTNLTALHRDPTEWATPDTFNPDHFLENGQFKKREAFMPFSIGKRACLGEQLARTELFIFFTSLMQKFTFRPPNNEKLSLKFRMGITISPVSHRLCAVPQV

CYP2J2 [2] = molecular target: T1, CYP2J2
CYP2J2 [3] = molecular target: T1, CYP2J2; type: binding
CYP2J2 [4] = molecular target: T1, CYP2J2; remark: listed apart in the source
[5] = cited from earlier work
CYP2J2 [6] = molecular target: T1, CYP2J2; assay: CYP2J2-mediated ebastine; type: biochemical
CYP2J2 [7] = molecular target: T1, CYP2J2; assay: DOX metabolism kinetics by CPR and CYP2J2; conditions: none detected by LC-MS/MS analysis
[8] = substrate: COc1cccc2c1C(=O)c1c(O)c3c(c(O)c1C2=O)C[C@@](O)(C(=O)CO)C[C@@H]3O[C@H]1C[C@H](N)[C@H](O)[C@H](C)O1; assay: purified protein, by the assay type; conditions: other: CPR with CYP2J2; hyperbolic curve

## COc1cccc2c1C(=N)c1c(O)c3c(c(O)c1C2=O)C[C@@](O)(C(C)=O)C[C@@H]3O[C@H]1C[C@H](N)[C@H](O)[C@H](C)O1 [5-IDN, 5-iminodaunorubicin]
CYP2J2 [1]
  IC50: 27.4 ± 0.03 µM
  Ki: 15.6 ± 0.02 µM

## COc1cccc2c1C(=O)c1c(O)c3c(c(O)c1C2=O)CC(O)(C(=O)CO)CC3 (stereo not drawn) [7-de-aDOX, 7-deoxydoxorubicin aglycone]
CYP2J2 [2]
  metabolism by CYP2J2 to form new products (in words): does not metabolize
CYP2J2 [3]
  Kd: 13.1 ± 1.1 µM
CYP2J2 [1]
  IC50: 10.2 ± 0.1 µM
  Ki: 5.78 ± 0.03 µM
CYP2J2 [4]
  NADPH oxidation on addition of CYP2J2 (in words): does not increase

## CCCCC/C=C\C/C=C\C/C=C\C/C=C\CCCC(=O)O [AA, arachidonic acid]
CYP2J2 [3]
  Ki: > 200 µM
CYP2J2 [3]; 100 μM AA, 1 μM DOX
  inhibition of DOX binding to CYP2J2 (in words): weakly inhibits

## COc1cccc2c1C(=O)c1c(O)c3c(c(O)c1C2=O)C[C@@](O)(C(=O)CO)C[C@@H]3O[C@H]1C[C@H](N)[C@H](O)[C@H](C)O1 [DOX, doxorubicin]
[5]
  plasma levels upon immediate exposure: 1000 to 10000 nM
  toxic cumulative dose: ~ 50 μM
CYP2J2 [3]
  Kd: 5.32 ± 0.89 µM
CYP2J2 [3]; 1 μM DOX or 7-de-aDOX, 37°C, with 100 μM AA or 60 μM EBS where indicated
  r0 (intrinsic polarization value): 0.083 ± 0.007
CYP2J2 [3]; 1 μM DOX or 7-de-aDOX, one-site fit
  r1 (maximum polarization value): 0.219 ± 0.010
CYP2J2 [6]
  IC50: 17.9 µM
  Ki: 8.97 ± 0.01 µM
CYP2J2 [6]; 20 μM EBS, fit to eq S1
  y0 (residual rate of EBS metabolism): 5.87 ± 2.84
CYP2J2 [1]
  IC50: 5.48 ± 0.04 µM
  Ki: 3.11 ± 0.02 µM
CYP2J2 [1]; 100 μM AA
  enzyme activity retained in the presence of saturating amounts: 23%
  y0 (residual rate of AA epoxidation at maximum inhibition): 19.8 ± 3.8 pmol (min)^−1 (nmolCYP2J2)^−1
CYP2J2 [7]
  metabolism by CYP2J2 to form new products (in words): does not metabolize

## COc1cccc2c1C(=O)c1c(O)c3c(c(O)c1C2=O)C[C@@](O)(/C(C)=N/NC(=O)c1ccccc1)C[C@@H]3O[C@H]1C[C@H](N)[C@H](O)[C@H](C)O1 [ZRN, zorubicin]
CYP2J2 [1]
  IC50: 6.46 ± 0.03 µM
  Ki: 3.67 ± 0.02 µM
CYP2J2 [1]; 100 μM AA, 0–50 μM anthracycline
  change in the regioselectivity of AA epoxidation (in words): not a significant change
CYP2J2 [1]; 100 μM AA
  y0 (residual rate of AA epoxidation at maximum inhibition): 18.7 ± 3.5 pmol (min)^−1 (nmolCYP2J2)^−1

B1: CYP2J2 (Homo sapiens) (protein)
chain: T1 sequence (P51589 1-502)
[8]
  Km: 10.4 ± 1.6 µM
